Like-named read-outs stand apart in the source and are kept apart here.
How the values were obtained:
[1] = system: Klebsiella pneumoniae (KPN) isolates; assay: MIC of compounds alone and combined with antibacterials, broth microdilution (CLSI); format: cell-based; details: Klebsiella pneumoniae, read-out: MIC
In short: (§1)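 Compound MIC, and antibacterial MIC at each fixed compound level, taken by visual inspection as lowest concentration stopping growth. Inoculum: log-phase bacteria, final 5·10^5 CFU/mL, cation-adjusted Mueller-Hinton broth; 16-20 h, 35° C, ambient air.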

[2] = system: Salmonella typhimurium (STY) isolates; assay: as above; format: cell-based; details: for MIC ATB in combination: STY S3371; for MIC: Salmonella enterica, TYPHIMURIUM, strain STY S3371 (OXA-1)
In short: as §1

Compound: C=CC1=C(C(=O)O)N2C(=O)[C@@H](NC(=O)/C(=N\OCC(=O)O)c3csc(N)n3)[C@H]2SC1 [FIX, Cefixime]
- MIC ([1]; strain KPN 131119 (TEM-1, SHV-11, CTX-M-15, OXA-1, OXA-48), CLA @ 4 μg/ml+ ATB): > 128 µg/mL
- MIC ([1]; strain KPN 140513 (TEM-1, SHV-11, CTX-M-15, KPC-3), ATB alone): > 128 µg/mL
- MIC ([1]; strain KPN 140513 (TEM-1, SHV-11, CTX-M-15, KPC-3), CLA @ 4 μg/ml+ ATB): > 128 µg/mL
- MIC ([1]; strain KPN 160143 (TEM-1, SHV-1, CTX-M-15, KPC-2, OXA-1), ATB alone): > 128 µg/mL
- MIC ([1]; strain KPN 160143 (TEM-1, SHV-1, CTX-M-15, KPC-2, OXA-1), CLA @ 4 μg/ml+ ATB): 2 µg/mL
- MIC ([1]; strain KPN 190128 (TEM-1, SHV-32, CTX-M-15, OXA-1), ATB alone): > 128 µg/mL
- MIC ([1]; strain KPN 190128 (TEM-1, SHV-32, CTX-M-15, OXA-1), CLA @ 4 μg/ml+ ATB): 0.5 µg/mL
- MIC ([1]; strain KPN 190270 (TEM-1, SHV-76, CTX-M-15, OXA-1), ATB alone): > 128 µg/mL
- MIC ([1]; strain KPN 190270 (TEM-1, SHV-76, CTX-M-15, OXA-1), CLA @ 4 μg/ml+ ATB): 1 µg/mL
- MIC ([1]; strain KPN 190425 (TEM-1, SHV-1, CTX-M-15, OXA-1), ATB alone): > 128 µg/mL
- MIC ([1]; strain KPN 190425 (TEM-1, SHV-1, CTX-M-15, OXA-1), CLA @ 4 μg/ml+ ATB): ≤ 0.25 µg/mL
- MIC ([1]; strain KPN 190551 (TEM-1, SHV-1, CTX-M-15, OXA-1), ATB alone): > 128 µg/mL
- MIC ([1]; strain KPN 190551 (TEM-1, SHV-1, CTX-M-15, OXA-1), CLA @ 4 μg/ml+ ATB): ≤ 0.25 µg/mL
- MIC ([1]; strain KPN 200047 (TEM-1, SHV-32, CTX-M-15, OXA-1), ATB alone): > 128 µg/mL
- MIC ([1]; strain KPN 200047 (TEM-1, SHV-32, CTX-M-15, OXA-1), CLA @ 4 μg/ml+ ATB): ≤ 0.25 µg/mL
- MIC ([1]; strain KPN 200327 (TEM-1, SHV-1, CTX-M-15, OXA-1), ATB alone): 64 µg/mL
- MIC ([1]; strain KPN 200327 (TEM-1, SHV-1, CTX-M-15, OXA-1), CLA @ 4 μg/ml+ ATB): ≤ 0.25 µg/mL
- MIC ([1]; strain KPN 260251 (TEM-1, SHV-11, SHV-12, CTX-M-15, KPC-2), ATB alone): > 128 µg/mL
- MIC ([1]; strain KPN 260251 (TEM-1, SHV-11, SHV-12, CTX-M-15, KPC-2), CLA @ 4 μg/ml+ ATB): 32 µg/mL
- MIC ([1]; strain KPN 260252 (TEM-1, SHV-11, KPC-3), ATB alone): > 128 µg/mL
- MIC ([1]; strain KPN 260252 (TEM-1, SHV-11, KPC-3), CLA @ 4 μg/ml+ ATB): 128 µg/mL
- MIC ([1]; strain KPN 260376 (SHV-1, SHV-49, OXA-1), ATB alone): > 128 µg/mL
- MIC ([1]; strain KPN 260376 (SHV-1, SHV-49, OXA-1), CLA @ 4 μg/ml+ ATB): ≤ 0.25 µg/mL
- MIC ([1]; strain KPN 270077 (TEM-1, SHV-1, CTX-M-15), ATB alone): > 128 µg/mL
- MIC ([1]; strain KPN 270077 (TEM-1, SHV-1, CTX-M-15), CLA @ 4 μg/ml+ ATB): 0.5 µg/mL
- MIC ([1]; strain KPN 700603 (SHV-18, OXA-2), ATB alone): 16 µg/mL
- MIC ([1]; strain KPN 700603 (SHV-18, OXA-2), CLA @ 4 μg/ml+ ATB): 0.5 µg/mL
- MIC ([1]; strain KPN ARA (TEM-1, SHV-11, CTX-M-15, OXA-1, OXA-48), ATB alone): > 128 µg/mL
- MIC ([1]; strain KPN ARA (TEM-1, SHV-11, CTX-M-15, OXA-1, OXA-48), CLA @ 4 μg/ml+ ATB): 128 µg/mL
- MIC ([1]; strain KPN LIB (SHV-11, OXA-48), ATB alone): ≤ 0.25 µg/mL
- MIC ([1]; strain KPN LIB (SHV-11, OXA-48), CLA @ 4 μg/ml+ ATB): ≤ 0.25 µg/mL
- MIC ([1]; strain KPN UFR22_O (TEM-1, SHV-1, OXA-48), ATB alone): ≤ 0.25 µg/mL
- MIC ([1]; strain KPN UFR22_O (TEM-1, SHV-1, OXA-48), CLA @ 4 μg/ml+ ATB): ≤ 0.25 µg/mL
- MIC ([1]; strain KPN UFR23 (TEM-1, SHV-1, OXA-48), ATB alone): ≤ 0.25 µg/mL
- MIC ([1]; strain KPN UFR23 (TEM-1, SHV-1, OXA-48), CLA @ 4 μg/ml+ ATB): ≤ 0.25 µg/mL
- MIC ([1]; strain KPN UFR24 (TEM-1, SHV-2, SHV-11, OXA-1, OXA-48, OXA-47), ATB alone): > 128 µg/mL
- MIC ([1]; strain KPN UFR24 (TEM-1, SHV-2, SHV-11, OXA-1, OXA-48, OXA-47), CLA @ 4 μg/ml+ ATB): 64 µg/mL
- MIC ([1]; strain KPN UFR25 (TEM-1, SHV-11, CTX-M-15, OXA-162), ATB alone): > 128 µg/mL
- MIC ([1]; strain KPN UFR25 (TEM-1, SHV-11, CTX-M-15, OXA-162), CLA @ 4 μg/ml+ ATB): 64 µg/mL
- MIC ([1]; strain KPN UFR27 (TEM-1, SHV-28, CTX-M-15, OXA-204), ATB alone): > 128 µg/mL
- MIC ([1]; strain KPN UFR27 (TEM-1, SHV-28, CTX-M-15, OXA-204), CLA @ 4 μg/ml+ ATB): > 128 µg/mL
- MIC ([1]; strain KPN UFR28 (TEM-1, SHV-1, CTX-M-15, OXA-1, OXA-232), ATB alone): 256 µg/mL
- MIC ([1]; strain KPN UFR28 (TEM-1, SHV-1, CTX-M-15, OXA-1, OXA-232), CLA @ 4 μg/ml+ ATB): 64 µg/mL
- MIC ([1]; strain KPN UFR65 (TEM-1, SHV-11, KPC-2), ATB alone): > 128 µg/mL
- MIC ([1]; strain KPN UFR65 (TEM-1, SHV-11, KPC-2), CLA @ 4 μg/ml+ ATB): 128 µg/mL
- MIC ([1]; strain KPN UFR66 (TEM-1, SHV-11, CTX-M-15, KPC-2), ATB alone): 512 µg/mL
- MIC ([1]; strain KPN UFR66 (TEM-1, SHV-11, CTX-M-15, KPC-2), CLA @ 4 μg/ml+ ATB): 64 µg/mL
- MIC ([1]; strain KPN UFR67 (TEM-1, SHV-11, KPC-3), ATB alone): > 128 µg/mL
- MIC ([1]; strain KPN UFR67 (TEM-1, SHV-11, KPC-3), CLA @ 4 μg/ml+ ATB): 128 µg/mL
- MIC ([1]; strain KPN UFR68 (TEM-1, SHV-11, CTX-M-15, KPC-3), ATB alone): > 128 µg/mL
- MIC ([1]; strain KPN UFR68 (TEM-1, SHV-11, CTX-M-15, KPC-3), CLA @ 4 μg/ml+ ATB): 64 µg/mL
- MIC ([1]; strain KPN UFR76 (TEM-155, SHV-11, ACT-1, OXA-2), ATB alone): > 128 µg/mL
- MIC ([1]; strain KPN UFR76 (TEM-155, SHV-11, ACT-1, OXA-2), CLA @ 4 μg/ml+ ATB): > 128 µg/mL
- MIC ([1]; strain KPN UFR77 (CMY-2), ATB alone): 128 µg/mL
- MIC ([1]; strain KPN UFR77 (CMY-2), CLA @ 4 μg/ml+ ATB): 128 µg/mL
- MIC ([1]; strain KPN UFR78 (TEM-1, SHV-1, CTX-M-15, CMY-2, OXA-1, OXA-48), ATB alone): > 128 µg/mL
- MIC ([1]; strain KPN UFR78 (TEM-1, SHV-1, CTX-M-15, CMY-2, OXA-1, OXA-48), CLA @ 4 μg/ml+ ATB): > 128 µg/mL
- MIC ([1]; strain KPN UFR79 (DHA-1, OXA-1), ATB alone): > 128 µg/mL
- MIC ([1]; strain KPN UFR79 (DHA-1, OXA-1), CLA @ 4 μg/ml+ ATB): > 128 µg/mL
- MIC ([1]; strain KPN UFR80 (SHV-11, DHA-1, OXA-1), ATB alone): ≤ 0.25 µg/mL
- MIC ([1]; strain KPN UFR80 (SHV-11, DHA-1, OXA-1), CLA @ 4 μg/ml+ ATB): 0.5 µg/mL
- MIC ([1]; strain KPN UFR81 (TEM-1, SHV-1, DHA-1, OXA-48), ATB alone): > 128 µg/mL
- MIC ([1]; strain KPN UFR81 (TEM-1, SHV-1, DHA-1, OXA-48), CLA @ 4 μg/ml+ ATB): > 128 µg/mL
- MIC ([1]; strain KPN UFR215 (SHV-27, CTX-M-15), ATB alone): > 128 µg/mL
- MIC ([1]; strain KPN UFR215 (SHV-27, CTX-M-15), CLA @ 4 μg/ml+ ATB): 1 µg/mL
- MIC ([1]; strain KPN UFR216 (SHV-28, CTX-M-15), ATB alone): > 128 µg/mL
- MIC ([1]; strain KPN UFR216 (SHV-28, CTX-M-15), CLA @ 4 μg/ml+ ATB): ≤ 0.25 µg/mL
- MIC ([1]; strain KPN UFR217 (TEM-1, SHV-1, CTX-M-15), ATB alone): > 128 µg/mL
- MIC ([1]; strain KPN UFR217 (TEM-1, SHV-1, CTX-M-15), CLA @ 4 μg/ml+ ATB): ≤ 0.25 µg/mL
- MIC ([1]; strain KPN UFR219 (SHV-12, CTX-M-15), ATB alone): > 128 µg/mL
- MIC ([1]; strain KPN UFR219 (SHV-12, CTX-M-15), CLA @ 4 μg/ml+ ATB): 0.5 µg/mL
- MIC ([1]; strain KPN UFR220 (TEM-1, SHV-12, DHA-1), ATB alone): > 128 µg/mL
- MIC ([1]; strain KPN UFR220 (TEM-1, SHV-12, DHA-1), CLA @ 4 μg/ml+ ATB): > 128 µg/mL
- MIC ([1]; strain KPN UFR221 (TEM-1, SHV-11, CTX-M-14, DHA-1), ATB alone): 64 µg/mL
- MIC ([1]; strain KPN UFR221 (TEM-1, SHV-11, CTX-M-14, DHA-1), CLA @ 4 μg/ml+ ATB): 128 µg/mL
- MIC ([1]; strain KPN UFR222 (DHA-2), ATB alone): > 128 µg/mL
- MIC ([1]; strain KPN UFR222 (DHA-2), CLA @ 4 μg/ml+ ATB): > 128 µg/mL
- MIC ([1]; strain KPN UFR227O (TEM-x, SHV-x, CTX-M-x), ATB alone): > 128 µg/mL
- MIC ([1]; strain KPN UFR227O (TEM-x, SHV-x, CTX-M-x), CLA @ 4 μg/ml+ ATB): > 128 µg/mL
- MIC ATB in combination ([2]; AF1 @ 4 μg/mL): <=0.25 μg/mL
- MIC ATB in combination ([2]; AF1 @ 8 μg/mL): <=0.25 μg/mL
- MIC ([2]; ATB alone): ≤ 0.25 µg/mL
- MIC ([2]; CLA @ 4 μg/ml+ ATB): ≤ 0.25 µg/mL
